Measurements from patent publication US6589963B2, “Heterocyclic compounds and salts thereof and medicinal use of the same” (Kyoto Pharmaceutical Industries, Ltd., priority 1999, dated 2003).

What was measured:
[1] = system: male KK-A^y mice; test: Hypotriglyceridemic action; format: in vivo, mouse; details: 4 consecutive days, non-fasting, about 24 hours after final administration, vs control group
Protocol: (§1) The triglyceride level in the plasma was measured using a commercially available assay kit (triglyceride G-test WAKO, Wako Pure Chemical Industries, Ltd.). The mice were grouped (5 mice per group) into a control group and an administration group, such that the mean and the standard deviation of the triglyceride level in the plasma of each group were nearly the same. Each test compound was suspended or dissolved in 5% gum arabic solution and administered orally to the administration group for 4 consecutive days from the next day. The 5% gum arabic solution was orally administered to the control group. Blood was drawn from the tail vein under a non-fasting state about 24 hours after the final administration and the triglyceride level in the plasma was measured. The decrease in the plasma triglyceride level was calculated from the following formula.
Decrease (%) in plasma triglyceride level=[(mean plasma triglyceride level of control group−mean plasma triglyceride level of test compound administration group)/mean plasma triglyceride level of control group]×100

[2] = system: male KK-A^y mice; test: Hypoglycemic action (method B); format: in vivo, mouse; details: 0.1 w/w % in powder feed for 4 days, blood at day 5, non-fasting, vs control group
Protocol: The glucose level in the plasma was measured using a commercially available assay kit (glucose CII-test WAKO, Wako Pure Chemical Industries, Ltd.). The mice were grouped (5 mice per group) into a control group and an administration group, such that the mean and the standard deviation of the glucose level in the plasma of each group were nearly the same. Each test compound was admixed in a proportion of 0.1 w/w % with a powder feed (CE-2, Clea) and the feed mixture was fed to the administration group for 4 days from the next day. A regular powder feed was fed to the control group. At day 5, blood was drawn from the tail vein under a non-fasting state and the glucose level in the plasma was measured. The decrease in the plasma glucose level was calculated from the following formula.
(§2) Decrease (%) in plasma glucose level=[(mean plasma glucose level of control group−mean plasma glucose level of test compound administration group)/mean plasma glucose level of control group]×100

[3] = system: male KK-A^y mice; test: Hypoglycemic action (method A); format: in vivo, mouse; details: 4 consecutive days, non-fasting, about 24 hours after final administration, vs control group
Protocol: as §1, with “glucose” for “triglyceride”, “(glucose CII-test” for “(triglyceride G-test”
as §2

[4] = system: male KK-A^y mice; test: Hypoglycemic action and hypoinsulinemic action in insulin resistant diabetic mouse; format: in vivo; details: 10 mg/kg orally once a day for 4 days, 24 hours after final administration, non-fasting
Protocol: Blood was drawn from the tail vein of 12-week-old male KK-A^y mice under a non-fasting state, and the glucose level in the plasma was measured using a commercially available assay kit (glucose CII-test WAKO, Wako Pure Chemical Industries, Ltd.). The mice were grouped (5 mice per group) into a control group and an administration group, such that the mean glucose level in the plasma and the average body weight of each group, as well as the standard deviation thereof were nearly the same. The test compound (10 mg/kg) was suspended in 5% aqueous gum arabic solution and orally administered once a day to the administration group for 4 days from the next day. The 5% aqueous gum arabic solution was orally administered to the control group. Blood was drawn from the tail vein under a non-fasting state 24 hours after the final administration. The concentrations of plasma glucose and plasma insulin were measured.

[5] = system: 3T3-L1 cells; test: Triglyceride accumulation promoting action in 3T3-L1 cells; format: cell-based; details: 10^−7 M test compound with 10 ng/ml insulin, 4 days; relative to control
Protocol: A culture medium of 80% confluent 3T3-L1 cells was removed and the cells were dissociated with 0.25% trypsin-EDTA solution. 5% FBS-DMEM (the same amount as the removed medium) was added and the obtained cell suspension was centrifuged at 25° C., 100×g for 1 min to give cell sediment and the supernatant was removed. The cells were re-suspended in a suitable amount of 5% FBS-DMEM medium and the cells were counted. 5% FBS-DMEM medium was added to adjust the concentration to 1×10^5 cells/ml and the mixture was dispensed by 1 ml to a 24 well plate. The cells were cultured with aeration of 5% CO2 at 37° C. for 2 days. Upon confirmation of a post-confluent state, the culture supernatant was changed to a medium containing 0.5 mM-IBMX, and the cells were cultured for 2 days. Then, the medium was changed to a medium containing 10 ng/ml insulin and 10^−7 M test compound and the cells were cultured further for 4 days. After removing the culture supernatant, the cells were lysed in a 0.1% SDS solution and the triglyceride amount was measured. The triglyceride accumulation (%) due to the potentiation of insulin activity by the test compound was calculated from the following formula.
[(triglyceride amount with addition of test compound−triglyceride amount of control)/triglyceride amount of control]×100

SMILES	Decrease (%) in plasma triglyceride level ([1]; dose 10 mg/kg orally)	Decrease (%) in plasma triglyceride level ([1]; dose 30 mg/kg orally)	Decrease (%) in plasma glucose level [2]	Decrease (%) in plasma glucose level ([3]; dose 10 mg/kg orally)	Decrease (%) in plasma glucose level ([3]; dose 30 mg/kg orally)	Plasma glucose ([4]; control 507)	Insulin ([4]; plasma, control 43)	Triglyceride accumulation (%) [5]
Cc1oc(-c2ccccc2)nc1CCOc1ccc2c(c1)CN(Cc1ccccc1)[C@H](C(=O)O)C2 [Example 2, 2-Benzyl-7-[2-(5-methyl-2-phenyloxazol-4-yl)ethoxy]-1,2,3,4-tetrahydroisoquinoline-(3S)-carboxylic acid]	39.5%	54.3%	69.2%	38.3%	60.6%	313 mg/dL	26 ng/mL	260.4%
Cc1oc(-c2ccccc2)nc1CCOc1ccc2c(c1)CN(C(=O)c1ccccc1)[C@H](C(=O)O)C2 [Example 10, 2-Benzoyl-7-[2-(5-methyl-2-phenyloxazol-4-yl)ethoxy]-1,2,3,4-tetrahydroisoquinoline-(3S)-carboxylic acid]	–	–	42.4%	–	–	–	–	–
